The results in this text go back to US10214527B2, “Triazolopyridine inhibitors of myeloperoxidase” (priority 2015, dated 2019).

What all share (format): biochemical
Assay [1] has as its target T1, myeloperoxidase (MPO) (Homo sapiens (Human), UniProt P05164). Put plainly: MPO peroxidation assay (Amplex Red assay). As to conditions: MPO peroxidation, potency range class; read-out: Amplex Red Assay IC50 value.
Assay [2] has as its target T1, myeloperoxidase (MPO). The assay can be described thus: MPO chlorination assay (APF assay). Particulars: MPO chlorination, potency range class; read-out: APF Assay IC50 value.
The target of assay [3] is eosinophil peroxidase (EPX) (Homo sapiens (Human), UniProt P11678). Put plainly: EPX bromination assay. As for the experimental part: [formula] where A=minimal Y value (activity level of inhibited sample), B=maximal Y value (activity level of uninhibited sample), C=Log IC50, D=Hill Slope, x=concentration of inhibitor. EPX Bromination Assay
EPX bromination activity was measured in 100 mM KPi (pH 7.4) by monitoring the H2O2 catalyzed formation of 3-bromo tyrosine from tyrosine and potassium bromide. A 50 μl mixture of 0.6 μM EPX (Lee Biosolutions Cat#342-60) was added to 100 nL inhibitor in 100% DMSO in a 384 well REMP plate. Enzyme and compound were preincubated for ten minutes at room temperature.
After the ten minute preincubation of enzyme and inhibitor, 25 μL of a mixture containing 400 μM tyrosine and 1200 μM potassium bromide was added to the plate containing enzyme and inhibitor, followed by the addition of 25 μl of 20 μM H2O2. The reaction was allowed to proceed for 15 minutes, at which time it was quenched with 10 μL of 20% TCA. The final concentrations of all components were 0.3 μM EPX, 100 μM tyrosine, […], 5 μM H2O2, 0.1% DMSO, 2.0% TCA.
IC50 values were determined by determining the peak areas of 3-bromo-tyrosine present at the end of the 15 minute reaction and fitting the data to:
[formula] where A=minimal Y value (activity level of inhibited sample), B=maximal Y value (activity level of uninhibited sample), C=Log IC50, D=Hill Slope, x=concentration of inhibitor.
Reversed-phase analysis was performed on a Waters Acquity Ultra Performance LC system using an Acquity UPLC BEH C18 […], 2.1×50 mm analytical column. The column was maintained at 60° C. Samples were eluted using a gradient of 0%-100% B over 2.5 minutes, followed by equilibration with 100% A for 1 minute where A consisted of 0.1% TFA and B consisted of 90% MeOH/0.1% TFA at a flow rate of 0.6 ml/min. The retention time of 3-bromo tyrosine was 1.22 min.

Sequence of eosinophil peroxidase (EPX) (P11678 140-715): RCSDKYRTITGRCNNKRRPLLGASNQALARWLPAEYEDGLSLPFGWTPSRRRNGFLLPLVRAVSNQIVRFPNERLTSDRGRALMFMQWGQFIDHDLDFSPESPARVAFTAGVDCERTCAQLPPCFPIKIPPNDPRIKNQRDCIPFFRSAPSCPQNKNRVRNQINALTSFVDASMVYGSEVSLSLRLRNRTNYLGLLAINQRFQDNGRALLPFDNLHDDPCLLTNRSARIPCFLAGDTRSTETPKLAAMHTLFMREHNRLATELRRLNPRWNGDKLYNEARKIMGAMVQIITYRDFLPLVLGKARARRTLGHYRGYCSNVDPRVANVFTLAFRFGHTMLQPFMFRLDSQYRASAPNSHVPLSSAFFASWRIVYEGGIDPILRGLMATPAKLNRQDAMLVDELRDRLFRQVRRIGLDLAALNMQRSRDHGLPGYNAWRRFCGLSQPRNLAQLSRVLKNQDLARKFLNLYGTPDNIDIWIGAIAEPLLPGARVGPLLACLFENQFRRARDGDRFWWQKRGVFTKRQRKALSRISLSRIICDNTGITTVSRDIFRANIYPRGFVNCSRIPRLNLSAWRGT
T1 sequence (P05164 49-745): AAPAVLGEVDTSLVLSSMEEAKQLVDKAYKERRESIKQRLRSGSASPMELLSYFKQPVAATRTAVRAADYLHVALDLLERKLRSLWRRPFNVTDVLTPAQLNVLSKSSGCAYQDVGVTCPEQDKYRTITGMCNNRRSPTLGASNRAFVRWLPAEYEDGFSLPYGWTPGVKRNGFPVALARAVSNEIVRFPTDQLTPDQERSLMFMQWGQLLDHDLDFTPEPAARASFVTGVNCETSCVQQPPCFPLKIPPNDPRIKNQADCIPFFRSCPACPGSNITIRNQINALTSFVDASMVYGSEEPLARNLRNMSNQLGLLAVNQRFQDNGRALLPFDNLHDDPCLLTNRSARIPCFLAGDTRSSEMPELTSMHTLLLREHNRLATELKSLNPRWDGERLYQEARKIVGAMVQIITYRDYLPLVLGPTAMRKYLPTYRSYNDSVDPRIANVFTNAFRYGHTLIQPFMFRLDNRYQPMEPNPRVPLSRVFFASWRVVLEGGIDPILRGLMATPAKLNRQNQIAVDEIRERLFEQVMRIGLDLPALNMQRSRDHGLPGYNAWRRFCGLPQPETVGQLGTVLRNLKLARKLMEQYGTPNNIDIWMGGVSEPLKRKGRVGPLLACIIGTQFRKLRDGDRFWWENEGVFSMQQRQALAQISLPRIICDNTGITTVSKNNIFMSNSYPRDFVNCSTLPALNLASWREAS

Usually IC50 stands for the point on the concentration scale where inhibition reaches its midpoint. For `Nc1cc(Cc2cc(Cl)ccc2F)c2nn[nH]c2n1` [Example 21, 7-(5-chloro-2-fluorobenzyl)-3H-[1,2,3] triazolo[4,5-b]pyridin-5-amine], the IC50 in assay [1] and in assay [2] was 1 to 100 nM each time.
Regarding `Nc1cc(Cc2ccc(F)cc2)c2nn[nH]c2n1` [Example 28, 7-(4-fluorobenzyl)-3H-[1,2,3]triazolo [4,5-b]pyridin-5-amine], the IC50 in assay [1] and in assay [2] was 101 to 999 nM in each case.
For `Nc1cc(Cc2cccc(OC(F)(F)F)c2)c2nn[nH]c2n1` [Example 29, 7-(3-(trifluorometh-oxy)benzyl)-3H-[1,2,3]triazolo [4,5-b]pyridin-5-amine], the IC50 in assay [1] and in assay [2] was 101 to 999 nM each time.
As for `Cc1cc(C)cc(Cc2cc(N)nc3[nH]nnc23)c1` [Example 31, 7-(3,5-dimethylbenzyl)-3H-[1,2,3] triazolo[4,5-b]pyridin-5-amine], the IC50 was 34 nM in assay [3], 1 to 100 nM in assay [1] and 101 to 999 nM in assay [2].
Regarding `Nc1cc(Cc2ccc(F)c(F)c2)c2nn[nH]c2n1` [Example 34, 7-(3,4-difluorobenzyl)-3H-[1,2,3] triazolo[4,5-b]pyridin-5-amine], the 50% inhibitory concentration (IC50) in assay [1] and in assay [2] was 101 to 999 nM each time.
Take `Nc1cc(Cc2ccc(-c3ccccc3)cc2)c2nn[nH]c2n1` [Example 37, 7-([1,1′-biphenyl]-4-ylmethyl)-3H-[1,2,3]triazolo [4,5-b]pyridin-5-amine]: the 50% inhibitory concentration (IC50) in assay [1] and in assay [2] was 101 to 999 nM in each case.
On to `Nc1cc(Cc2cccc(C(=O)c3ccccc3)c2)c2nn[nH]c2n1` [Example 40, (3-((5-amino-3H-[1,2,3]triazolo [4,5-b]pyridin-7-yl)methyl)phenyl)(phenyl) methanone], for which the concentration for half-maximal inhibition (IC50) in assay [1] and in assay [2] was 101 to 999 nM throughout.
On to `Nc1cc(Cc2ccc(F)cc2F)c2nn[nH]c2n1` [Example 43, 7-(2,4-difluorobenzyl)-3H-[1,2,3] triazolo[4,5-b]pyridin-5-amine], for which the IC50 in assay [1] and in assay [2] was 101 to 999 nM throughout.
As to `Nc1cc(Cc2cccc(F)c2F)c2nn[nH]c2n1` [Example 44, 7-(2,3-difluorobenzyl)-3H-[1,2,3] triazolo[4,5-b]pyridin-5-amine], the concentration for half-maximal inhibition (IC50) in assay [1] is 1 to 100 nM; in assay [2], 101 to 999 nM.
`Nc1cc(Cc2cccc(C(=O)NCCc3ccccc3)c2)c2nn[nH]c2n1` [Example 47, 3-((5-Amino-3H-[1,2,3]triazolo[4,5-b]pyridin-7-yl)methyl)-N-phenethylbenzamide]: the 50% inhibitory concentration (IC50) in assay [1] and in assay [2] was 101 to 999 nM in each case.
Consider `Nc1cc(Cc2cccc(-c3ccn(Cc4ccccc4)n3)c2)c2nn[nH]c2n1` [Example 48, 7-(3-(1-Benzyl-1H-pyrazol-3-yl)benzyl)-3H-[1,2,3]triazolo[4,5-b]pyridin-5-amine], for which the half-maximal inhibitory concentration (IC50) was 1 to 100 nM in assay [1] and 101 to 999 nM in assay [2].
On the same counts, the results for `COC(=O)c1cc(Cc2cc(N)nc3[nH]nnc23)ccc1F` [Example 50, methyl 5-((5-amino-3H-[1,2,3]triazolo [4,5-b]pyridin-7-yl)methyl)-2-fluorobenzoate] are 101 to 999 nM and 101 to 999 nM.
In the same order, the values of `COc1cccc(Cc2cc(N)nc3[nH]nnc23)n1` [Example 51, 7-((6-Methoxypyridin-2-yl)methyl)-3H-[1,2,3]triazolo[4,5-b]pyridin-5-amine] are 101 to 999 nM and 1000 to 10000 nM.
On the same counts, the results for `Nc1cc(Cc2cccnc2)c2nn[nH]c2n1` [Example 56, 7-(pyridin-3-ylmethyl)-3H-[1,2,3] triazolo[4,5-b]pyridin-5-amine] are 101 to 999 nM and 101 to 999 nM.
On to `Nc1cc(Cc2cncc(Cl)c2)c2nn[nH]c2n1` [Example 57, 7-((5-chloropyridin-3-yl)methyl)-3H-[1,2,3]triazolo [4,5-b]pyridin-5-amine], for which the IC50 in assay [3] is 52 nM; in assay [1], 1 to 100 nM.
As for `Nc1cc(Cc2ccc(Oc3ccccc3)nc2)c2nn[nH]c2n1` [Example 58, 7-((6-phenoxypyridin-3-yl)methyl)-3H-[1,2,3]triazolo [4,5-b]pyridin-5-amine], the IC50 in assay [1] was 1000 to 10000 nM; in assay [2] it was 101 to 999 nM.
In the same order, the values of `Nc1cc(Cc2cccc3c2ccn3Cc2cccc(Cc3ccccc3)c2)c2nn[nH]c2n1` [Example 62, 7-((1-(3-Benzylbenzyl)-1H-indol-4-yl)methyl)-3H-[1,2,3]triazolo[4,5-b]pyridin-5-amine] are 1 to 100 nM and 1 to 100 nM.
For the compound `Nc1cc(Cc2cccc3c2ccn3Cc2cccc(OCc3ccccc3)c2)c2nn[nH]c2n1` [Example 63, 7-((1-(3-(Benzyloxy)benzyl)-1H-indol-4-yl)methyl)-3H-[1,2,3]triazolo[4,5-b]pyridin-5-amine], the IC50 in assay [1] and in assay [2] was 1 to 100 nM throughout.
Turning to `Nc1cc(Cc2cccc3c2ccn3Cc2cccc(F)c2)c2nn[nH]c2n1` [Example 64, 7-((1-(3-Fluorobenzyl)-1H-indol-4-yl)methyl)-3H-[1,2,3]triazolo[4,5-b]pyridin-5-amine], the 50% inhibitory concentration (IC50) was 19 nM in assay [3], 1 to 100 nM in assay [1] and 101 to 999 nM in assay [2].
For `Nc1cc(Cc2cccc3c2cnn3Cc2ccccc2)c2nn[nH]c2n1` [Example 65, 7-((1-Benzyl-1H-indazol-4-yl)methyl)-3H-[1,2,3]triazolo[4,5-b]pyridin-5-amine], the half-maximal inhibitory concentration (IC50) in assay [1] and in assay [2] was 1 to 100 nM throughout.
`Nc1cc(Cc2cccc3nn(Cc4ccccc4)cc23)c2nn[nH]c2n1` [Example 66, 7-((2-Benzyl-2H-indazol-4-yl)methyl)-3H-[1,2,3]triazolo[4,5-b]pyridin-5-amine]: the 50% inhibitory concentration (IC50) in assay [1] and in assay [2] was 101 to 999 nM throughout.
